Measured values published in the supplement of paper PMC10307832.

Compound: COc1cc(-c2nn([C@H]3CC[C@H](N4CCN(C(C)=O)CC4)CC3)c3ncnc(N)c23)ccc1NC(=O)c1cc2ccccc2n1C + N=C(N)NC(=N)NCCc1ccccc1 [Phenformin] (partner 250 µM)
Assay: relative viability (nuclei count vs DMSO), 5 days (fraction); higher = more cells survive
Settings: first compound 1.28 µM
Procedure, shortened: (§1)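 One day after seeding in 1536-well plates, lung cancer cell lines were dosed by pin tool. Dosing was either single-drug or a fixed anchor-drug dose plus five library-drug doses (not always all listed) in √10 steps. After 5 days, nuclei were stained in one fix-and-stain step and counted on 4× images, and relative viability is the nuclei count of treated wells over that of vehicle wells, given as the median of duplicate plates.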

| Cell Line | relative viability |
| --- | --- |
| NCI-H1915 | 0.334 |
| HCC-827 | 0.39 |
| LXF-289 | 0.46 |
| NCI-H23 | 0.717 |
| NCI-H647 | 0.4 |
| CAL-12T | 0.416 |
| NCI-H1651 | 0.31 |
| EPLC-272H | 0.282 |
| NCI-H2228 | 0.327 |
| NCI-H1792 | 0.309 |
| NCI-H1355 | 0.41 |
| NCI-H3122 | 0.27 |
| NCI-H1437 | 0.287 |
| NCI-H1755 | 0.614 |

Compound: CO[C@@H]1[C@H](N(C)C(=O)c2ccccc2)C[C@H]2O[C@]1(C)n1c3ccccc3c3c4c(c5c6ccccc6n2c5c31)C(=O)NC4 [Midostaurin] + C[C@@H](Oc1cc(-c2cnn(C3CCNCC3)c2)cnc1N)c1c(Cl)ccc(F)c1Cl [Crizotinib] (partner 1 µM)
Assay: as above
Settings: first compound 0.01 µM
Procedure, shortened: as §1

| Cell Line | relative viability |
| --- | --- |
| NCI-H2405 | 0.787 |
| HOP-62 | 0.846 |
| HCC-44 | 0.747 |
| LU99A | 0.603 |
| BEN | 1.12 |
| HARA | 0.902 |
| HCC-78 | 0.363 |
| NCI-H322M | 0.982 |
| LCLC-97TM1 | 0.418 |
| NCI-H2009 | 1.07 |
| A-427 | 0.949 |
| NCI-H661 | 0.931 |
| NCI-H1734 | 0.653 |
| NCI-H460 | 0.903 |
| NCI-H2347 | 0.678 |
| SK-LU-1 | 0.913 |

| Cell Line | relative viability |
| --- | --- |
| 201T | 1.07 |
| NCI-H1915 | 0.889 |
| HCC-827 | 0.856 |
| LXF-289 | 0.815 |
| NCI-H23 | 0.479 |
| NCI-H647 | 1.06 |
| CAL-12T | 0.616 |
| NCI-H1651 | 0.916 |
| EPLC-272H | 0.875 |
| NCI-H2228 | 0.662 |
| NCI-H1792 | 0.947 |
| NCI-H1355 | 0.965 |
| NCI-H3122 | 0.286 |
| NCI-H1437 | 0.935 |
| NCI-H1755 | 0.808 |

Same assay, conditions: first compound 0.03162 µM

| Cell Line | relative viability |
| --- | --- |
| NCI-H2405 | 0.825 |
| HOP-62 | 0.624 |
| HCC-44 | 0.787 |
| LU99A | 0.634 |
| BEN | 0.889 |
| HARA | 0.977 |
| HCC-78 | 0.288 |
| NCI-H322M | 0.948 |
| NCI-H2009 | 0.98 |
| A-427 | 0.794 |
| NCI-H661 | 0.928 |
| NCI-H1734 | 0.691 |
| NCI-H460 | 0.75 |
| NCI-H2347 | 0.684 |
| SK-LU-1 | 0.948 |
| 201T | 1.01 |
| NCI-H1915 | 0.889 |
| HCC-827 | 0.844 |
| LXF-289 | 0.78 |
| NCI-H23 | 0.512 |
| NCI-H647 | 0.802 |
| CAL-12T | 0.572 |
| NCI-H1651 | 0.85 |
| EPLC-272H | 0.998 |
| NCI-H2228 | 0.434 |
| NCI-H1792 | 1.02 |
| NCI-H1355 | 1.01 |
| NCI-H3122 | 0.258 |
| NCI-H1437 | 0.87 |
| NCI-H1755 | 0.805 |

Same assay, conditions: first compound 0.1 µM

| Cell Line | relative viability |
| --- | --- |
| NCI-H2405 | 0.797 |
| HOP-62 | 0.988 |
